Results published in paper PMC10907374, “G2019S selective LRRK2 kinase inhibitor abrogates mitochondrial DNA damage” (NPJ Parkinson's Disease, 2024).
“Also recorded” adds a separate entry of the source.

Legend:
[1] = tested on: WT-LRRK2 expressing HEK293 cells; assay: Mito DNADX mtDNA damage and mtDNA copy number in WT-LRRK2 overexpressing HEK293 cells; type: cell-based, human; settings: 10 nM-1 μM, 2 h
Description: (§1) Cells were plated at a density of 0.3 × 10^6 cells in a 6-well dish and treated at ~40–50% confluency. At the time of harvest, cells were collected and either protein collected or DNA extracted as described below.
(§2) The tool compound EB-42168 was discovered as part of a small molecule discovery program aimed at identifying LRRK2 kinase inhibitors that are selective for the pathogenic G2019S LRRK2 variant. […] MLi‐2 inhibits WT LRRK2 ~1000‐fold more than EB‐42168[20].
(§3) Cells were collected and the nuclei and mitochondria were isolated as previously described. DNA was extracted from LRRK2-WT and G2019S-LRRK2 cells, and wild-type and LRRK2^G2019S/G2019S KI cells using QuickGene DNA Whole Blood Kit L (Autogen, fk-dbl). PD patient LRRK2 G2019S and healthy subject control-derived LCL DNA was extracted using the QuickGene DNA Tissue Kit L (Autogen, fk-dtl), utilizing a semi-automated system (Autogen, QuickGene-610L). For the Autogen system, the pellet was resuspended in 2 ml of 1X PBS, and the standard manufacturer’s protocol was conducted as if the cell suspension was whole blood. DNA was eluted with EDTA-free buffer, and quality was assessed using a Spectradrop microvolume microplate (Molecular Devices). Double-stranded DNA was quantified using Quant-iT Picogreen dsDNA assay (Thermo Fisher) as previously described.
DNA damage in the mitochondrial genome was measured utilizing Mito DNADX, an assay that we recently developed and described, currently the most robust way of measuring damage in mtDNA[39],[82]. The Mito DNADX assay combines optimized polymerase chain reaction (PCR) parameters using a high-fidelity DNA polymerase and a fluorescent dye that binds to double-stranded DNA that permits the real-time quantification of DNA damage in distinct loci in a 96-well platform. The premise of the Mito DNADX assay involves amplification of a specific mitochondrial PCR fragment in which less PCR product will be amplified when mtDNA damage or lesions block the ability of the DNA polymerase to replicate. As such, mtDNA damage or mtDNA repair intermediates that slow down or impair DNA polymerase progression will be detected. Therefore, equal amounts of sample DNA amplified under identical conditions can be directly compared across conditions to determine the mtDNA lesion frequency. Mitochondrial DNA lesion frequency was performed as previously described. Briefly, 15 ng of DNA was used to amplify long or short amplicons of the mitochondrial genome (as determined by primer sets). The amount of amplification is directly proportional to the number of undamaged DNA templates. Average lesion frequency is calculated as described. […] Each biological DNA sample was analyzed in technical triplicate. […]

[2] = tested on: G2019S-LRRK2 expressing HEK293 cells; assay: Mito DNADX mtDNA damage and mtDNA copy number in G2019S-LRRK2 overexpressing HEK293 cells; type: cell-based, human; settings: 10 nM-1 μM, 2 h
Description: as §1, §2, §3
(§4) DNA damage in the mitochondrial genome was measured utilizing Mito DNADX, an assay that we recently developed and described, currently the most robust way of measuring damage in mtDNA[39],[82]. The Mito DNADX assay combines optimized polymerase chain reaction (PCR) parameters using a high-fidelity DNA polymerase and a fluorescent dye that binds to double-stranded DNA that permits the real-time quantification of DNA damage in distinct loci in a 96-well platform. The premise of the Mito DNADX assay involves amplification of a specific mitochondrial PCR fragment in which less PCR product will be amplified when mtDNA damage or lesions block the ability of the DNA polymerase to replicate. As such, mtDNA damage or mtDNA repair intermediates that slow down or impair DNA polymerase progression will be detected. Therefore, equal amounts of sample DNA amplified under identical conditions can be directly compared across conditions to determine the mtDNA lesion frequency. Mitochondrial DNA lesion frequency was performed as previously described. Briefly, 15 ng of DNA was used to amplify long or short amplicons of the mitochondrial genome (as determined by primer sets). The amount of amplification is directly proportional to the number of undamaged DNA templates. Average lesion frequency is calculated as described. Results are presented with the values in experimental samples relative to control samples (normalized to 1 lesion per 10 kb). PCR reactions included KAPA Long Range HotStart DNA Polymerase (KAPA Biosystems)[49]. Each biological DNA sample was analyzed in technical triplicate. Limitations of the Mito DNADX assay have been recently discussed.

[3] = tested on: LRRK2^G2019S/G2019S KI HEK293 cells; assay: Mito DNADX mtDNA damage and mtDNA copy number in LRRK2 G2019S/G2019S KI HEK293 cells; type: cell-based, human; settings: for mtDNA copy number / mtDNA damage: LRRK2 G2019S/G2019S KI cells, 2 h; for mtDNA copy number: 10 nM-1 μM
Description: as §1
Following this treatment, “Post-treatment recovery 0 h” samples were collected immediately, or vehicle or MLi-2-containing treatment medium was washed out and replaced with fresh medium and incubated for 2 additional hours and then collected as “Post-treatment recovery 2 h” samples. Isolation, quantitation, and mtDNA damage was performed as described below.
as §2, §3, §4

wild-type HEK293 cells = assay: Mitophagy (Mtphagy dye / Lyso dye live cell imaging) in wild-type HEK293 cells; type: cell-based, human; settings: 100 nM 2 h pre-treatment; for basal levels of mitophagy: Mitophagy dye intensity or co-localization; for FCCP-stimulated mitophagy: then 20 μM FCCP 3 h
Description: Thirty-five mm cell culture dishes (Cellvis, D35-20-1.5-N) were coated with poly-D-lysine (Sigma-Aldrich, P7280-5MG) for 5 min, washed with cell culture grade water (Sigma-Aldrich, W3500), and allowed to dry for at least 1 h before plating. LRRK2^G2019S/G2019S KI HEK293 and wild-type cells were passaged as described above and plated at 300,000 cells per well on poly-D-lysine-coated dishes. […] Following this, cells were washed three times with serum-free medium, and a working solution of Mtphagy dye (Dojindo, MD-01) was prepared in serum-free medium according to manufacturer protocols. Cultures were incubated with Mtphagy dye for 30 min, followed by three washes with serum-free medium. Complete medium was used to prepare a 20 µM FCCP (Abcam, ab120081) or DMSO control treatment solution, which was used to treat cells for 3 h. Following treatment, cells were then washed 3 times with serum-free medium, and a working solution of Lyso dye (Dojindo, MD-01) was prepared in serum-free medium and used to treat cells for 30 min. Complete medium lacking phenol red was prepared for use in confocal live cell imaging by combining phenol red-free DMEM/F-12 (Fisher Scientific, 21-041-025), FBS (VWR, 97068-085), and penicillin-streptomycin (VWR, 45000-652). Following Lyso dye treatment, cultures were washed three times with phenol red-free medium, followed by adding fresh phenol red-free medium to cell culture dishes. MitoBright LT Deep Red (Dojindo, MT12-12) was diluted in growth medium to prepare a 0.1 μmol/l solution and was used to treat cells for 15 min for total mitochondrial staining. Live cell imaging (5% CO2, 37 °C) was performed using a Zeiss LSM 880 Confocal Laser Scanning Microscope with Zen Black software. On average, ~70 cells were analyzed for each condition per each experimental replicate.
Following imaging, files were processed using Zen Blue software, and TIFF files of each channel were obtained for analysis. ImageJ was used to obtain readouts for image analysis. All images were converted to 8-bit format. For each respective image, the Lyso dye channel was used to create a mask delineating each lysosomal focus as a region of interest (ROI). Thresholding parameters were adjusted between biological replicates as required to ensure that the Lyso dye ROI encompassed all lysosome foci appropriately, and this was used to create a mask. This was then applied to the corresponding Mtphagy dye channel image, allowing collection of Mtphgy fluorescence intensity readouts for each lysosomal focus. Outliers were removed using Prism software (GraphPad) with the coefficient of removal set to 0.2%. Data was thresholded to exclude lysosomes not containing mitochondria by excluding fluorescence values with intensities equal to or below background levels. The number of ROIs remaining after thresholding was used to quantify lysosomes containing fluorescing mitochondria (mitolysosomes). Fluorescence intensity values for all mitolysosomes per condition per biological replicate were averaged to obtain a value of mitophagy fluorescence intensity per mitolysosome. For each replicate, all values of average mitolysosome fluorescence intensity were normalized to wild-type (vehicle treated) levels for the given replicate.

G2019S LRRK2 = settings: cited from earlier work

SMILES | mtDNA copy number [1] | mtDNA damage [1] | mtDNA copy number [2] | mtDNA damage [2] | mtDNA damage ([2]; listed as EB-42618) | mtDNA copy number [3] | mtDNA copy number ([3]; listed as EB-42618) | mtDNA damage ([3]; all concentrations tested (10 nM-1 μM)) | basal levels of mitophagy (wild-type HEK293 cells) | FCCP-stimulated mitophagy (wild-type HEK293 cells) | fold more potent inhibition of G2019S LRRK2 than wild-type LRRK2 (G2019S LRRK2) [fold] | mtDNA copy number after inhibitor washout ([3]; 100 nM for 2 h, washout, 2 h recovery) | mtDNA damage phenotype after inhibitor washout ([3]; KI cells, 100 nM for 2 h, washout, 2 h recovery in media) | time to re-establishment of mtDNA damage phenotype after washout ([3]; KI cells, 100 nM for 2 h then washout) [h] | mtDNA damage ([3]; 100 nM) | potency in recombinant cell lines expressing WT-LRRK2 or G2019S-LRRK2 (G2019S LRRK2)
CC1=C(C(=O)Nc2ccc3[nH]nc(-c4ccnc(N5CCOCC5)c4)c3c2)C(C)(C)n2nnnc2N1C [EB-42168] | not different; also recorded: did not change | No effect | not different; also recorded: did not change | normalizing damage to WT-LRRK2 control levels (or lower) | abrogated | reduced | modestly decreased | reversed to wild-type levels | did not impact | blocked | 100 | – | – | – | – | –
C[C@@H]1CN(c2cc(-c3n[nH]c4ccc(OC5(C)CC5)cc34)ncn2)C[C@H](C)O1 [MLi-2, reference compound] | no effect; also recorded: unaltered | trend toward an increase in mtDNA damage | no effect; also recorded: unaltered | restored mtDNA damage to WT-LRRK2 control levels | – | did not change; also recorded: No effect; also recorded: No changes | – | – | did not impact | blocked | – | no changes | fully re-established | ≤ 2 | reversed mtDNA damage levels to wild-type levels | equipotent
